In patent publication US11524966B1 (Valo Early Discovery, Inc., priority 2017, dated 2022):

The molecules below were run against T1, USP25 (USP25-His6, Boston Biochem E-546) (Homo sapiens, UniProt Q9UHP3) (assay: Ubiquitin-Rhodamine 110 Assay for USP25 Activity, Example A-2). Details: Ub-Rh110 assay, Example A-2; read-out: USP25 A-2 IC50 range.
T1 construct: His6; purchased Boston Biochem E-546
T1 sequence (Q9UHP3 1-1055): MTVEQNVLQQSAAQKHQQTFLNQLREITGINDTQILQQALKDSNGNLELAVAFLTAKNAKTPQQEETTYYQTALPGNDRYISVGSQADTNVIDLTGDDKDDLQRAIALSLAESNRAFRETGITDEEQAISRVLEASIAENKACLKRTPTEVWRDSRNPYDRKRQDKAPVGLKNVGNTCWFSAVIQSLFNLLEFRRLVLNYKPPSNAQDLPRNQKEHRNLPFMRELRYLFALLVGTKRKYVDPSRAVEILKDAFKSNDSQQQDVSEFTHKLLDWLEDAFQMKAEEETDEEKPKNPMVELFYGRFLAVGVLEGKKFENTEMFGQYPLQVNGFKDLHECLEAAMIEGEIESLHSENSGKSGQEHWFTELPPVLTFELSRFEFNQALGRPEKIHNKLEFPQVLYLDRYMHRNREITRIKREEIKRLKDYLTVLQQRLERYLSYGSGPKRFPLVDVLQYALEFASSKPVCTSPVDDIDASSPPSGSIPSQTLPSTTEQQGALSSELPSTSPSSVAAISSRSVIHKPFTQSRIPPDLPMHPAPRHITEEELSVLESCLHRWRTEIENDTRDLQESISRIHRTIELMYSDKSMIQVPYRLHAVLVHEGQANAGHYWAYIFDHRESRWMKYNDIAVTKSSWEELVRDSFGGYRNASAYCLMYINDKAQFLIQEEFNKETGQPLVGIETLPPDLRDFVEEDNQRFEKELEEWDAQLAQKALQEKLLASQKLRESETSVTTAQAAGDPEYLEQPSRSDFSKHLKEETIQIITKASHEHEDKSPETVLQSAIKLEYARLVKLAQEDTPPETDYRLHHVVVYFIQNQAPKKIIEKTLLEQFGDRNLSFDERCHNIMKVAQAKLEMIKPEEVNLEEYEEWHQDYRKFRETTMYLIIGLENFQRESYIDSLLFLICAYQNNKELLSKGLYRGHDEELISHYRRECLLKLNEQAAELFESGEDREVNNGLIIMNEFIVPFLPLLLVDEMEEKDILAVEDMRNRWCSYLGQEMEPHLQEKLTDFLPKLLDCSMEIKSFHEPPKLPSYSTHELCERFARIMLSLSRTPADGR
Type: biochemical
Method in brief: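 Steps: compound dilutions (top 25 μM, 3-fold, 10 points) were preincubated 30 min with 75 pM USP25-His6; 25 nM Ub-Rh110 substrate was added under initial-velocity conditions; after 45 min at room temperature, 10 mM citric acid stopped the reaction before fluorescence reading.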
In the case of `Cc1ccc2c(N)c(C(=O)N[C@H]3COc4cc(N5CCN[C@H](C)C5)ccc4C3)sc2n1` [Example 2-9, 3-amino-6-methyl-N-((R)-7-((R)-3-methylpiperazin-1-yl)chroman-3-yl)thieno[2,3-b]pyridine-2-carboxamide], the IC50 is reported as 0.2 to 2 µM. For `Cc1ccc2c(N)c(C(=O)N[C@H]3COc4cc(N5CCNCC56COC6)ccc4C3)sc2n1` [Example 2-10], the IC50 was 0.05 to 0.2 µM. Work on `Cc1cnc2c(N)c(C(=O)N[C@H]3COc4cc(N5CC6CC(C5)N6)ccc4C3)sc2n1` [Example 2-11, N-((3R)-7-(3,6-diazabicyclo[3.1.1]heptan-3-yl)chroman-3-yl)-7-amino-3-methylthieno[2,3-b]pyrazine-6-carboxamide] yielded an IC50 of 0.05 to 0.2 µM. `Cc1cnc2c(N)c(C(=O)N[C@H]3COc4cc(N5CC6COCC(C5)N6)ccc4C3)sc2n1` [Example 2-12, N-((3R)-7-(3-oxa-7,9-diazabicyclo[3.3.1]nonan-7-yl)chroman-3-yl)-7-amino-3-methylthieno[2,3-b]pyrazine-6-carboxamide] gave an IC50 of 0.2 to 2 µM. Work on `Cc1cnc2c(N)c(C(=O)N[C@H]3COc4cc(N5CC6CNCC(C5)O6)ccc4C3)sc2n1` [Example 2-13, N-((3R)-7-(9-oxa-3,7-diazabicyclo[3.3.1]nonan-3-yl)chroman-3-yl)-7-amino-3-methylthieno[2,3-b]pyrazine-6-carboxamide] yielded an IC50 of 0.2 to 2 µM. `Nc1c(C(=O)N[C@H]2COc3cc(N4CC5CC(C4)N5)ccc3C2)sc2nc(F)ccc12` [Example 2-14, N-((3R)-7-(3,6-diazabicyclo[3.1.1]heptan-3-yl)chroman-3-yl)-3-amino-6-fluorothieno[2,3-b]pyridine-2-carboxamide] was tested, and the IC50 was 0.2 to 2 µM. Molecule `Cc1nc2sc(C(=O)N[C@H]3COc4cc(N5CC6CC(C5)N6)ccc4C3)c(N)c2cc1F` [Example 2-15, N-((3R)-7-(3,6-diazabicyclo[3.1.1]heptan-3-yl)chroman-3-yl)-3-amino-5-fluoro-6-methylthieno[2,3-b]pyridine-2-carboxamide] has an IC50 of 0.05 to 0.2 µM. Molecule `COc1nc2sc(C(=O)N[C@H]3COc4cc(N5CCNCC5)ccc4C3)c(N)c2cc1F` [Example 2-16, (R)-3-amino-5-fluoro-6-methoxy-N-(7-(piperazin-1-yl)chroman-3-yl)thieno[2,3-b]pyridine-2-carboxamide] has an IC50 of 0.2 to 2 µM. For `Cc1cc(C)c2c(N)c(C(=O)N[C@H]3COc4cc(N5CCNCC5)ccc4C3)sc2n1` [Example 2-17, (R)-3-amino-4,6-dimethyl-N-(7-(piperazin-1-yl)chroman-3-yl)thieno[2,3-b]pyridine-2-carboxamide], the IC50 was 0.05 to 0.2 µM. In the case of `Cc1cc(C)c2c(N)c(C(=O)N[C@H]3COc4cc(N5CC6CC(C5)N6)ccc4C3)sc2n1` [Example 2-18, N-((3R)-7-(3,6-diazabicyclo[3.1.1]heptan-3-yl)chroman-3-yl)-3-amino-4,6-dimethylthieno[2,3-b]pyridine-2-carboxamide], the IC50 is reported as 0.05 to 0.2 µM. Work on `Cc1cc(C)c2c(N)c(C(=O)N[C@H]3COc4cc(N5CC6CNCC(C5)C6(F)F)ccc4C3)sc2n1` [Example 2-19, 3-amino-N-((3R)-7-(9,9-difluoro-3,7-diazabicyclo[3.3.1]nonan-3-yl)chroman-3-yl)-4,6-dimethylthieno[2,3-b]pyridine-2-carboxamide] yielded an IC50 of 0.001 to 0.05 µM. In the case of `Cc1cc(C)c2c(N)c(C(=O)N[C@H]3COc4cc(N5CC6CNCC(C5)O6)ccc4C3)sc2n1` [Example 2-20, N-((3R)-7-(9-oxa-3,7-diazabicyclo[3.3.1]nonan-3-yl)chroman-3-yl)-3-amino-4,6-dimethylthieno[2,3-b]pyridine-2-carboxamide], the IC50 is reported as 0.001 to 0.05 µM. `Cc1cc(C(F)(F)F)c2c(N)c(C(=O)N[C@H]3COc4cc(N5CC6CC(C5)N6)ccc4C3)sc2n1` [Example 2-21] showed an IC50 of 0.05 to 0.2 µM. `Cc1cc(C(F)(F)F)c2c(N)c(C(=O)N[C@H]3COc4cc(N5CC6CNCC(C5)C6(F)F)ccc4C3)sc2n1` [Example 2-22, 3-amino-N-((3R)-7-(9,9-difluoro-3,7-diazabicyclo[3.3.1]nonan-3-yl)chroman-3-yl)-6-methyl-4-(trifluoromethyl)thieno[2,3-b]pyridine-2-carboxamide] gave an IC50 of 0.001 to 0.05 µM. `Cc1cc(C(F)(F)F)c2c(N)c(C(=O)N[C@H]3COc4cc(N5CC6CNCC(C5)O6)ccc4C3)sc2n1` [Example 2-23, N-((3R)-7-(9-oxa-3,7-diazabicyclo[3.3.1]nonan-3-yl)chroman-3-yl)-3-amino-6-methyl-4-(trifluoromethyl)thieno[2,3-b]pyridine-2-carboxamide] gave an IC50 of 0.001 to 0.05 µM. Molecule `O=C(N[C@H]1COc2cc(N3CC4CCC(C3)N4)ccc2C1)c1cnc2c(c1)C1(CCN2)CC1` [Example 2-24, N-((3R)-7-(3,8-diazabicyclo[3.2.1]octan-3-yl)chroman-3-yl)-2′,3′-dihydro-1′H-spiro[cyclopropane-1,4′-[1,8]naphthyridine]-6′-carboxamide] has an IC50 of 0.2 to 2 µM. Molecule `O=C(N[C@H]1COc2cc(N3CC4CCC(C3)N4)ccc2C1)c1ccc(NCc2ccccc2)nc1` [Example 2-25, N-((3R)-7-(3,8-diazabicyclo[3.2.1]octan-3-yl)chroman-3-yl)-6-(benzylamino)nicotinamide] has an IC50 of 0.05 to 0.2 µM. `Cc1nc2sc(C(=O)N[C@H]3COc4cc(N5CC6CC(C5)N6)ccc4C3)c(N)c2s1` [Example 2-26, N-((3R)-7-(3,6-diazabicyclo[3.1.1]heptan-3-yl)chroman-3-yl)-6-amino-2-methylthieno[2,3-d]thiazole-5-carboxamide] was tested, and the IC50 was 0.2 to 2 µM. `Cc1nc2sc(C(=O)N[C@H]3COc4cc(N5CC6CCCC(C5)N6)ccc4C3)c(N)c2s1` [Example 2-27] gave an IC50 of 0.2 to 2 µM. In the case of `Cc1nc2sc(C(=O)N[C@H]3COc4cc(N5CC6CNCC(C5)C6(F)F)ccc4C3)c(N)c2s1` [Example 2-28, 6-amino-N-((3R)-7-(9,9-difluoro-3,7-diazabicyclo[3.3.1]nonan-3-yl)chroman-3-yl)-2-methylthieno[2,3-d]thiazole-5-carboxamide], the IC50 is reported as 0.05 to 0.2 µM. In the case of `CCn1ccc2cc(C(=O)N[C@H]3COc4cc(N5CC6CCCC(C5)N6)ccc4C3)nnc21` [Example 2-29, N-((3R)-7-(3,9-diazabicyclo[3.3.1]nonan-3-yl)chroman-3-yl)-7-ethyl-7H-pyrrolo[2,3-c]pyridazine-3-carboxamide], the IC50 is reported as 0.2 to 2 µM. `CCn1ccc2cc(C(=O)N[C@H]3COc4cc(N5CC6CNCC(C5)C6(F)F)ccc4C3)cnc21` [Example 2-30, N-((3R)-7-(9,9-difluoro-3,7-diazabicyclo[3.3.1]nonan-3-yl)chroman-3-yl)-1-ethyl-1H-pyrrolo[2,3-b]pyridine-5-carboxamide] showed an IC50 of 0.001 to 0.05 µM. Molecule `Cc1cc(C)c2c(N)c(C(=O)N[C@H]3COc4c(C#N)c(N5CCNCC5)cc(F)c4C3)sc2n1` [Example 2-31, (R)-3-amino-N-(8-cyano-5-fluoro-7-(piperazin-1-yl)chroman-3-yl)-4,6-dimethylthieno[2,3-b]pyridine-2-carboxamide] has an IC50 of 0.2 to 2 µM. `Cc1cc(C)c2c(N)c(C(=O)N[C@H]3COc4cc(N5CCNCC5)c(C#N)c(F)c4C3)sc2n1` [Example 2-32, (R)-3-amino-N-(6-cyano-5-fluoro-7-(piperazin-1-yl)chroman-3-yl)-4,6-dimethylthieno[2,3-b]pyridine-2-carboxamide] was tested, and the IC50 was 0.001 to 0.05 µM. Molecule `Cc1ccc2c(N)c(C(=O)N[C@H]3COc4cc(N5CC6CNCC(C5)C6(F)F)c(C#N)cc4C3)sc2n1` [Example 2-33, 3-amino-N-((3R)-6-cyano-7-(9,9-difluoro-3,7-diazabicyclo[3.3.1]nonan-3-yl)chroman-3-yl)-6-methylthieno[2,3-b]pyridine-2-carboxamide] has an IC50 of 0.001 to 0.05 µM. For `[2H]C([2H])([2H])O[C@H]1CN(c2ccc3c(c2)OC[C@H](NC(=O)c2sc4nc(C)ccc4c2N)C3)C[C@@H]1N` [Example 2-38, 3-amino-N-((R)-7-((3S,4S)-3-amino-4-(methoxy-d3)pyrrolidin-1-yl)chroman-3-yl)-6-methylthieno[2,3-b]pyridine-2-carboxamide], the IC50 was 0.2 to 2 µM.

Same assay, conditions: Ubiquitin-Rhodamine 110 assay, Example A-2; read-out: USP25 A-2 IC50 range
For `Cc1cnc2c(N)c(C(=O)N[C@H]3CCc4nc(N5CCNCC5)ccc4C3)sc2n1` [Example 23-6, 7-amino-3-methyl-N-[(6S)-2-(piperazin-1-yl)-5,6,7,8-tetrahydroquinolin-6-yl]thieno[2,3-b]pyrazine-6-carboxamide], the IC50 was 0.2 to 2 µM.
